Experimental data taken from ChEMBL document CHEMBL5113480, “Discovery of novel biphenyl-substituted pyridone derivatives as potent non-nucleoside reverse transcriptase inhibitors with promising oral bioavailability” (Eur J Med Chem, 2022).

Tests used:
[1] = Acute toxicity in mouse at 1.2 g/Kg,IG assessed as lung damage by H and E staining based analysis; conditions: in vivo, po, 1200 mg/kg
[2] = AUC (0 to t) in Sprague-Dawley rat at 5 mg/kg,po; type: ADME, organism-based; parameters: dose 5 mg/kg, route po; conditions: in vivo
[3] = Acute toxicity in mouse at 1.2 g/Kg,IG assessed as liver damage by H and E staining based analysis; conditions: in vivo, po, 1200 mg/kg
[4] = system: Human immunodeficiency virus 1; test: Antiviral activity against HIV-1 Y188L mutant infected in human MT4 cells assessed as reduction in viral replication by MTT assay; type: functional, organism-based; conditions: Human immunodeficiency virus 1, Y188L mutant
[5] = Acute toxicity in mouse at 1.2 g/Kg,IG assessed as behavioral abnormalities; conditions: in vivo, po, 1200 mg/kg
[6] = Acute toxicity in mouse at 1.2 g/Kg,IG assessed as brain damage by H and E staining based analysis; type: tissue-based; conditions: in vivo, po, 1200 mg/kg
[7] = Acute toxicity in mouse at 1.2 g/Kg,IG assessed as kidney damage by H and E staining based analysis; conditions: in vivo, po, 1200 mg/kg
[8] = Clearance in Sprague-Dawley rat at 1 mg/kg,iv; type: ADME, organism-based; conditions: in vivo
[9] = molecular target: Voltage-gated inwardly rectifying potassium channel KCNH2 (Homo sapiens, UniProt Q12809); test: Inhibition of human ERG potassium channel expressed in CHO cells by automated patch clamp electrophysiological assay; type: toxicity, cell-based
Sequence of Voltage-gated inwardly rectifying potassium channel KCNH2 (Q12809 whole entry): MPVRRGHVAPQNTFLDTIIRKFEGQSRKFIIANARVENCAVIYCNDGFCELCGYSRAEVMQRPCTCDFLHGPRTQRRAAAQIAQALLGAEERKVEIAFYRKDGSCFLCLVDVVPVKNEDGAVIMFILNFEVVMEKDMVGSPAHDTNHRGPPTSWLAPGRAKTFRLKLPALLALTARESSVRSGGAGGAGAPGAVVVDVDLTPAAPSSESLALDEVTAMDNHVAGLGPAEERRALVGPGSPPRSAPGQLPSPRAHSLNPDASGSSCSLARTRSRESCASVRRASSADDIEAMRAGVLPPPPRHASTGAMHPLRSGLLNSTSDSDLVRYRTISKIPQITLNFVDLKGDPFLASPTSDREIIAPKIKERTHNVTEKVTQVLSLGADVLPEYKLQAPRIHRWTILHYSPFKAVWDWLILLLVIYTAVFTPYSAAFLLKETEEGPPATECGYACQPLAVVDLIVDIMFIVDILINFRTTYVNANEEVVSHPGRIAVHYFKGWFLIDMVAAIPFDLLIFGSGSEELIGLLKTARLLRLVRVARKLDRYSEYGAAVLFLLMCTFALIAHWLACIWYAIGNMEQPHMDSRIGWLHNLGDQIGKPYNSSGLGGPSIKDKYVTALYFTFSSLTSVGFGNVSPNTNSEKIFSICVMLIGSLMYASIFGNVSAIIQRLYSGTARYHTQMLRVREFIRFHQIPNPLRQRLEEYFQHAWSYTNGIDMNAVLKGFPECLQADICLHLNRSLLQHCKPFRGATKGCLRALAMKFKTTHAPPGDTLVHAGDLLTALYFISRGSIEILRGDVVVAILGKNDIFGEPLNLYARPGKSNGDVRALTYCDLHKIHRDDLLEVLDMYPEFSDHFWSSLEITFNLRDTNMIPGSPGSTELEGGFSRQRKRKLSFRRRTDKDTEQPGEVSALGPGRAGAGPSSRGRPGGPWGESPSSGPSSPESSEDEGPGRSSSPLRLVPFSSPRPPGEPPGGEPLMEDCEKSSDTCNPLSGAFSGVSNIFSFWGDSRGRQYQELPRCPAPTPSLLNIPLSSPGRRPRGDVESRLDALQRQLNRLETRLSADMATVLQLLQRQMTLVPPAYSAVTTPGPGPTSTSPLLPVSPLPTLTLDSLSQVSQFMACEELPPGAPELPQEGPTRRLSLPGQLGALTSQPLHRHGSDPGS

[10] = Half life in Sprague-Dawley rat at 5 mg/kg,po; type: ADME, organism-based; conditions: in vivo
[11] = Tmax in Sprague-Dawley rat at 1 mg/kg,iv; type: ADME, organism-based; conditions: in vivo
[12] = system: Human immunodeficiency virus 1; test: Antiviral activity against HIV-1 ROD infected in human MT4 cells assessed as reduction in viral replication by MTT assay; type: functional, organism-based
[13] = Acute toxicity in mouse at 1.2 g/Kg,IG assessed as mouse death; conditions: in vivo, po, 1200 mg/kg
Cytochrome P450 2C9 = Cytochrome P450 2C9 (Homo sapiens, UniProt P11712); test: Inhibition of CYP2C9 (unknown origin); type: ADME
Sequence of Cytochrome P450 2C9 (P11712 whole entry): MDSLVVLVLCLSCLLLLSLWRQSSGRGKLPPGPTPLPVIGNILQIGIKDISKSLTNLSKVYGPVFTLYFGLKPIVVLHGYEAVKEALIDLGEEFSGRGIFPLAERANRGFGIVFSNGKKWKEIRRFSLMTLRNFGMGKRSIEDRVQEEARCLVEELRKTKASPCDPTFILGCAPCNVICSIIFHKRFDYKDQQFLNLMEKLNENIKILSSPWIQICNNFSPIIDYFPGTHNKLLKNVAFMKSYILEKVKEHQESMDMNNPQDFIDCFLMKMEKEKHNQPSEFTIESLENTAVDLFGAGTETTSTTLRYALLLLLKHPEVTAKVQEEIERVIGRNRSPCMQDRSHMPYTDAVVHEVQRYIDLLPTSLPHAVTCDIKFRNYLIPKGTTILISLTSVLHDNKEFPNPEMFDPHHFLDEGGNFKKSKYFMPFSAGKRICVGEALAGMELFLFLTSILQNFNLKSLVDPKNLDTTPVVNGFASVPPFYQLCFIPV

[14] = system: Human immunodeficiency virus 1; test: Antiviral activity against HIV-1 E138K mutant infected in human MT4 cells assessed as reduction in viral replication by MTT assay; type: functional, organism-based; conditions: Human immunodeficiency virus 1, E138K mutant
[15] = Acute toxicity in mouse at 1.2 g/Kg,IG assessed as spleen damage by H and E staining based analysis; conditions: in vivo, po, 1200 mg/kg
[16] = AUC (0 to infinity) in Sprague-Dawley rat at 1 mg/kg,iv; type: ADME, organism-based; parameters: time infinity, dose 1 mg/kg, route iv; conditions: in vivo
[17] = molecular target: Human immunodeficiency virus type 1 reverse transcriptase (Human immunodeficiency virus 1, UniProt Q72547); test: Inhibition of wild type HIV-1 Reverse transcriptase
[18] = system: Human immunodeficiency virus 1; test: Antiviral activity against HIV-1 F227L-V106A mutant infected in human MT4 cells assessed as reduction in viral replication by MTT assay; type: functional, organism-based; conditions: Human immunodeficiency virus 1, F227L-V106A mutant
Cytochrome P450 2C19 = Cytochrome P450 2C19 (Homo sapiens, UniProt P33261); test: Inhibition of CYP2C19 (unknown origin); type: ADME
Sequence of Cytochrome P450 2C19 (P33261 whole entry): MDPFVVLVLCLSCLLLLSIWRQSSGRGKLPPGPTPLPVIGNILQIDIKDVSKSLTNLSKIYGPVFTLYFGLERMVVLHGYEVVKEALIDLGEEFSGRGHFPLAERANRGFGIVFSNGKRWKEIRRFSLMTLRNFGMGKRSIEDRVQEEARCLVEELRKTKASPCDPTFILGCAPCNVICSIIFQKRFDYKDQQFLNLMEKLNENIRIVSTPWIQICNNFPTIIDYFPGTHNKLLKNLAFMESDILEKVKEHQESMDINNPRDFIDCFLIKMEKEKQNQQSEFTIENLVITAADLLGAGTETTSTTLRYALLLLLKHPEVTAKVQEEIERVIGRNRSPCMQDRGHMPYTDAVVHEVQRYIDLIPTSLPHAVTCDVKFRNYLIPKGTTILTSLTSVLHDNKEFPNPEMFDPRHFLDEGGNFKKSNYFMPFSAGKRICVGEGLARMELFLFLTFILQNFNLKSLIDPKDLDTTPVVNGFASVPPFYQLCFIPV

[19] = Selectivity index, ratio of CC50 for cytotoxicity against human MT4 cells to EC50 of Anti-HIV activity against HIV-1 IIIB infected in human MT4 cells; type: toxicity, cell-based; conditions: read-out: Ratio CC50/EC50
[20] = Tmax in Sprague-Dawley rat at 5 mg/kg,po; type: ADME, organism-based; conditions: in vivo
[21] = system: Human immunodeficiency virus 1; test: Antiviral activity against HIV-1 K103N-Y181C mutant infected in human MT4 cells assessed as reduction in viral replication by MTT assay; type: functional, organism-based; conditions: Human immunodeficiency virus 1, K103N-Y181C mutant
[22] = Cmax in Sprague-Dawley rat at 1 mg/kg,iv; type: ADME, organism-based; parameters: dose 1 mg/kg, route iv; conditions: in vivo
[23] = MRT (0 to t) in Sprague-Dawley rat at 1 mg/kg,iv; type: ADME, organism-based; conditions: in vivo
[24] = AUC (0 to t) in Sprague-Dawley rat at 1 mg/kg,iv; type: ADME, organism-based; parameters: dose 1 mg/kg, route iv; conditions: in vivo
[25] = system: Human immunodeficiency virus 1; test: Antiviral activity against HIV-1 K103N mutant infected in human MT4 cells assessed as reduction in viral replication by MTT assay; type: functional, organism-based; conditions: Human immunodeficiency virus 1, K103N mutant
[26] = Half life in Sprague-Dawley rat at 1 mg/kg,iv; type: ADME, organism-based; conditions: in vivo
[27] = MRT (0 to t) in Sprague-Dawley rat at 5 mg/kg,po; type: ADME, organism-based; conditions: in vivo
[28] = Acute toxicity in mouse at 1.2 g/Kg,IG assessed as heart damage by H and E staining based analysis; type: tissue-based; conditions: in vivo, po, 1200 mg/kg
Cytochrome P450 1A2 = molecular target: T1, Cytochrome P450 1A2 (Homo sapiens, UniProt P05177); test: Inhibition of CYP1A2 (unknown origin); type: ADME
T1 sequence (P05177 whole entry): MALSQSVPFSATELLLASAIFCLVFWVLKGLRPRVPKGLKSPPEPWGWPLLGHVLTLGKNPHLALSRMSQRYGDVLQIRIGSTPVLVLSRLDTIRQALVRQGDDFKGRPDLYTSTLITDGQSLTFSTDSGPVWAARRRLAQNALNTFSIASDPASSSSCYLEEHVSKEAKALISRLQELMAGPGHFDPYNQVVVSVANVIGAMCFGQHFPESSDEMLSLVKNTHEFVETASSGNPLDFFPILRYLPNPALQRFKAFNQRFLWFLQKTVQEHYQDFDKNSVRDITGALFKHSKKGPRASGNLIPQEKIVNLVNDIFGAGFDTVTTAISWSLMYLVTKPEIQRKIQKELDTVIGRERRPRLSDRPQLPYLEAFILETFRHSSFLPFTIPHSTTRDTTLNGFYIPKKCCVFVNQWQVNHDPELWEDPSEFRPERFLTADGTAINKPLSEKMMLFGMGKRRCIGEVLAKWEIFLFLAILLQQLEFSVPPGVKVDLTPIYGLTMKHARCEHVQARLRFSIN

Cytochrome P450 2D6 = Cytochrome P450 2D6 (Homo sapiens, UniProt P10635); test: Inhibition of CYP2D6 (unknown origin); type: ADME
Sequence of Cytochrome P450 2D6 (P10635 whole entry): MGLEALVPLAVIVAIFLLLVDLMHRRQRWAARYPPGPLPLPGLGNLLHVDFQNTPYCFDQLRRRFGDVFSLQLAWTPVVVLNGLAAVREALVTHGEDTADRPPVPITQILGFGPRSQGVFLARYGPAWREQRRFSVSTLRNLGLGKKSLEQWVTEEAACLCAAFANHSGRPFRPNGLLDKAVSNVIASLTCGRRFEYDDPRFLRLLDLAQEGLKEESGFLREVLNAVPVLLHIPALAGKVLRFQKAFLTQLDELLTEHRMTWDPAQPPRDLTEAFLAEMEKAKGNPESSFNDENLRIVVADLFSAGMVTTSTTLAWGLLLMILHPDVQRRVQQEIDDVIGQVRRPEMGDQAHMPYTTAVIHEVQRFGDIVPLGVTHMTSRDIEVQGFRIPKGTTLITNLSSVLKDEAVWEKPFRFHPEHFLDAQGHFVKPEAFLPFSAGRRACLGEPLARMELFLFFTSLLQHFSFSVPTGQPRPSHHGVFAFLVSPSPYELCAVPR

[29] = MRT (0 to infinity) in Sprague-Dawley rat at 5 mg/kg,po; type: ADME, organism-based; conditions: in vivo
Cytochrome P450 3A4 [30] = molecular target: T2, Cytochrome P450 3A4 (Homo sapiens, UniProt P08684); test: Inhibition of CYP3A4T (unknown origin); type: ADME
T2 sequence (P08684 whole entry): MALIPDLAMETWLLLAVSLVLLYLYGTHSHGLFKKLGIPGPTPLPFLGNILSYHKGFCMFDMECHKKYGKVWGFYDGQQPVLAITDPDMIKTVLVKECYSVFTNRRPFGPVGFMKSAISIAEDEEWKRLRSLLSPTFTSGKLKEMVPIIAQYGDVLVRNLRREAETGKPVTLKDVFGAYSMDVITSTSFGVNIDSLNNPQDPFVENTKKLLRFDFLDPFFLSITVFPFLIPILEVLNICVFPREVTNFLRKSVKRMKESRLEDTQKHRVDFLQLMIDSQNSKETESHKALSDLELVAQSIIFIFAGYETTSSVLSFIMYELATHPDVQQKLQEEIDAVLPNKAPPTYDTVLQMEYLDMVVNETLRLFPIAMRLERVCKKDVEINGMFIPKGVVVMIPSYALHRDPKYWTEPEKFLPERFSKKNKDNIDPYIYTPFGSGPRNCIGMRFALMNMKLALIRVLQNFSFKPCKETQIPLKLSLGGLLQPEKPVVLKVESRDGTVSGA

[31] = Acute toxicity in mouse at 1.2 g/Kg,IG assessed as change in body weight; conditions: in vivo, po, 1200 mg/kg
[32] = MRT (0 to infinity) in Sprague-Dawley rat at 1 mg/kg,iv; type: ADME, organism-based; conditions: in vivo
[33] = Clearance in Sprague-Dawley rat at 5 mg/kg,po; type: ADME, organism-based; conditions: in vivo
[34] = Cmax in Sprague-Dawley rat at 5 mg/kg,po; type: ADME, organism-based; parameters: dose 5 mg/kg, route po; conditions: in vivo
Cytochrome P450 3A4 [35] = molecular target: T2, Cytochrome P450 3A4; test: Inhibition of CYP3A4M (unknown origin); type: ADME
[36] = system: Human immunodeficiency virus 1; test: Antiviral activity against HIV-1 Y181C mutant infected in human MT4 cells assessed as reduction in viral replication by MTT assay; type: functional, organism-based; conditions: Human immunodeficiency virus 1, Y181C mutant
[37] = AUC (0 to infinity) in Sprague-Dawley rat at 5 mg/kg,po; type: ADME, organism-based; parameters: time infinity, dose 5 mg/kg, route po; conditions: in vivo
[38] = system: Human immunodeficiency virus 1; test: Antiviral activity against HIV-1 IIIB infected in human MT4 cells assessed as reduction in viral replication by MTT assay; type: functional, organism-based; conditions: Human immunodeficiency virus 1, IIIB
[39] = system: Human immunodeficiency virus 1; test: Antiviral activity against HIV-1 L100I mutant infected in human MT4 cells assessed as reduction in viral replication by MTT assay; type: functional, organism-based; conditions: Human immunodeficiency virus 1, L100I mutant

In the case of `Cc1cccc(-c2cc(C#N)cc(Oc3c(C(F)(F)F)ccn(Cc4n[nH]c(=O)n4C)c3=O)c2)c1`, the Activity [1] is reported as “Non-Toxic”, the AUC(0-t) [2] is reported as 4980 ng·h/mL and the Activity [3] is reported as “Non-Toxic”. The EC50 [4] was 760 nM, the Activity [5] was “Non-Toxic” and the Activity [6] was “Non-Toxic”. The Activity [7] was “Non-Toxic”, the clearance [8] was 17.9 mL/min/kg and the IC50 [9] was over 200000 nM. The half-life [10] was 8.45 h, the Tmax [11] was 4.8 min and the EC50 [12] was over 35000 nM. The Activity [13] was “Non-Toxic”, the IC50 (Cytochrome P450 2C9) was 38300 nM and the EC50 [14] was 25 nM. For the same compound, the Activity [15] was “Non-Toxic”, the AUC(0-inf) [16] was 940 ng·h/mL and the IC50 [17] was 41 nM. It also gave an EC50 [18] of 27500 nM, an IC50 (Cytochrome P450 2C19) of 28600 nM and a selectivity ratio [19] of 2020. The Tmax [20] was 6.67 h, the EC50 [21] was 260 nM and the Cmax [22] was 469 ng/mL. It also gave an MRT last [23] of 2.03 h, an AUC(0-t) [24] of 892 ng·h/mL and an EC50 [25] of 13 nM. The half-life [26] was 1.9 h, the MRT last [27] was 6.79 h and the Activity [28] was “Non-Toxic”. For the same compound, the IC50 (Cytochrome P450 1A2) was over 50000 nM, the IC50 (Cytochrome P450 2D6) was over 50000 nM and the MRT inf [29] was 13.9 h. For the same compound, the IC50 (Cytochrome P450 3A4 [30]) was 25300 nM, the Activity [31] was “Non-Toxic” and the MRT inf [32] was 2.48 h. It also gave a CL/F [33] of 13.2 mL/min/kg, a Cmax [34] of 583 ng/mL and an IC50 (Cytochrome P450 3A4 [35]) of over 50000 nM. For the same compound, the EC50 [36] was 58 nM, the AUC(0-inf) [37] was 6590 ng·h/mL and the EC50 [38] was 13 nM. For the same compound, the EC50 [39] was 24 nM.
